These results are taken from paper PMC10667233, “New cytotoxic dammarane type saponins from Ziziphus spina-christi” (Scientific Reports, 2023).

Converted amounts (≈) assume the structure as drawn. Like-named read-outs stand apart in the source and are kept apart here.

One data set concerns A549. In words: MTS cell viability, A549 lung cancer cells. In kind it is cell-based. The note with it: Homo sapiens, read-out: IC50 (µg/mL) values. The procedure: (§1) A549, U87, MDA-MB-231, and CT-26 cells were purchased from American Type Culture Collection (ATCC) (Manassas, VA, USA). The cells, A549 and CT-26 were cultured in RPMI-1640 supplemented with 1% Pen/Strep (100 U mL^–1, Gibco, Carlsbad, CA) and 10% FBS (Atlanta Biologicals, Flowery Branch, GA). While MDA-MB-231 and U87 cells were cultured in DMEM medium supplemented with 1% Pen/Strip and 10% FBS. Cells were incubated at 37 °C and 5% CO2 in humidified incubator (Sanyo Scientific Autoflow, Hudson, MA).
(§2) A549, U87, MDA-MB-231, and CT-26 cancer cells were plated in 96-well plates at a density of 2X10^4 cells/well in 100 μL of medium before the addition of different concentrations of the plant extracts. Untreated control group was incubated with^-100 µL/well of fresh media and^-methanol. After 24 h., the medium was aspirated and replaced by-100 µL of fresh media, and 20 µL of MTS^-reagent in each well (CellTiter 96^-Aqueous One^-Solution cell^-proliferation assay, Promega^-Corporation, Madison,^-WI,^-USA). The plates were then incubated at 37 °C with 5% CO2 for 2 h. The absorbance was measured at 490 nm using a Spectramax plus 384 Microplate reader (Molecular Devices, Sunnyvale, CA, USA). Relative cell viability values were expressed as the percentage of the absorbance from the treated wells compared to the control wells (untreated), given that the control wells viability was set to 100%. The cells were examined under a cell imaging system (EVOS FL Digital Microscope) using a 20X objective as well before getting rid of the plates. The half-maximal inhibitory concentrations (IC50) of pure compounds for four […] cancer cell lines were calculated.
(§3) Figure 3 The anticancer activities of the three pure compounds (1–3) isolated from Ziziphus spina-christi using the MTS assay on glioblastoma, breast cancer, lung, and colorectal carcinoma cells. Cancer cells lines A549 (a) U87 (b), MDA-MB-231 (c) and CT-26 […] were tested. […] Cells were stained with MTS reagents and cell survival was quantitated using the spectramax plate reader. […]

The test system of the next data set is CT-26. Kind of data set: MTS cell viability, CT-26 colorectal carcinoma cells. In kind it is cell-based. The note with it: read-out: IC50 (µg/mL) values. Here is the method:
as §1, §2, §3

Another data set concerns MDA-MB-231. Kind of data set: MTS cell viability, MDA-MB-231 breast cancer cells. In kind it is cell-based. As to conditions: Homo sapiens, read-out: IC50 (µg/mL) values. Here is the method: as §1, §2, §3
For another data set, the system named is U87. Kind of data set: MTS cell viability, U87 glioblastoma cells. In kind it is cell-based. The note with it: Homo sapiens, U-87 MG, 24 h, read-out: IC50 (µg/mL) values. Here is the method: as §1, §2, §3
Data set [1] deals with breast cancer cell line MDA-MB-231. The arrangement: method as in PMID 19960417. The note with it: 50 μmol/l, MDA-MB-231 in vitro; cited from earlier work.
The test system of a further data set is sarcoma S180. On the set-up: method as in PMID 19960417. The note with it: 50 μmol/kg, mice implanted with sarcoma S180; cited from earlier work.
In a further data set the test system is EBV-EA. The note with it: cited from earlier work.
The test system of another data set is A549 cells. The arrangement: method as in PMID 26922140. As to conditions: concentration-dependent; cited from earlier work.

In the case of `CC(C)=CC1CC(C)(O)C2C3CCC4C5(C)CCC(OC6OCC(O)C(OC7OC(CO)C(OC(=O)C=Cc8ccc(O)cc8)C(O)C7O)C6OC6OC(C)C(O)C(O)C6O)C(C)(C)C5CCC4(C)C34COC2(C4)O1` (stereo not drawn) [Compound 1, Christinin E], the IC50 in the data set with A549 (A549, MTS, 24 h) is 9.53 ± 0.01 µg/mL (≈ 9 µM); in the data set on CT-26 (CT26, CT-26, MTS, 24 h) it was 0.7 ± 0.049 µg/mL (≈ 0.661 µM); with MDA-MB-231 (MDA-MB-231, MTS, 24 h) it was 6.02 ± 1.5 µg/mL (≈ 5.68 µM); in the data set on U87 (U87, MTS) it was 5.7 ± 1.63 µg/mL (≈ 5.38 µM).

In the case of `CC(C)=CC1CC(C)(O)C2C3CCC4C5(C)CCC(OC6OCC(O)C(OC7OC(CO)C(OC(=O)C=Cc8ccc(OC(=O)C(=O)O)cc8)C(O)C7O)C6OC6OC(C)C(O)C(O)C6O)C(C)(C)C5CCC4(C)C34COC2(C4)O1` (stereo not drawn) [Compound 2, Christinin F], the IC50 in the data set on A549 (A549, MTS, 24 h) stood at 4.89 ± 0.93 µg/mL (≈ 4.32 µM); in the data set on CT-26 (CT26, CT-26, MTS, 24 h), 7.21 ± 0.35 µg/mL (≈ 6.37 µM); in the data set with MDA-MB-231 (MDA-MB-231, MTS, 24 h), 5.81 ± 0.087 µg/mL (≈ 5.14 µM); in the data set on U87 (U87, MTS) it was 4.16 ± 0.87 µg/mL (≈ 3.68 µM).

With `CC(C)=CC1CC(C)(O)C2C3CCC4C5(C)CCC(OC6OCC(O)C(OC7OC(CO)C(O)C(O)C7O)C6OC6OC(C)C(O)C(O)C6O)C(C)(C)C5CCC4(C)C34COC2(C4)O1` (stereo not drawn) [Compound 3, christinin A], the IC50 in the data set on A549 (A549, 24 h) is 5.67 ± 1.05 µg/mL (≈ 6.21 µM); in the data set on CT-26 (CT26, 24 h), 5.47 ± 1.3 µg/mL (≈ 5.99 µM); with MDA-MB-231 (MDA-MB-231, 24 h) it was 9.3 ± 0.19 µg/mL (≈ 10.2 µM); in the data set on U87, 7.28 ± 0.56 µg/mL (≈ 7.97 µM).

Consider `CC(C)=CC1C[C@](C)(O)[C@@H]2[C@@H]3CC[C@@H]4[C@@]5(C)CC[C@H](O[C@@H]6OC[C@H](O)[C@H](O[C@@H]7O[C@H](CO)[C@@H](O)[C@H](O)[C@H]7O)[C@H]6O[C@@H]6O[C@@H](CO)[C@H](O)[C@H]6O)C(C)(C)[C@@H]5CC[C@@]4(C)[C@]34CO[C@@]2(C4)O1` (stereo partly drawn) [bacopaside VII], for which the “adhesion, migration, and matrigel invasion (in words)” value in data set [1] was “markedly reduced”. In addition, the inhibition in the data set with sarcoma S180 is 84.13%.

Turning to `C=C(C)[C@@H]1CC[C@]2(C)[C@H](CC[C@@H]3[C@@H]([C@@](C)(O)CCC=C(C)C)CC[C@]32C)[C@@]1(C)CCC(=O)O` [dammarenolic acid], in the data set on EBV-EA, the IC50 was 226 mol ratio/32 pmol TPA.

For the compound bacopaside É, in data set [1], the “adhesion, migration, and matrigel invasion (in words)” value is recorded as “markedly reduced”. Besides, the inhibition in the data set with sarcoma S180 was 90.52%.

In the case of gypenoside Jh1, the “cytotoxicity (in words)” value in the data set with A549 cells is given as “strong cytotoxicity”.

The term inhibition denotes the drop in the measured response relative to a control, in per cent.
